This is an account of results in ChEMBL document CHEMBL1201862, “PubChem BioAssay data set” (2004).

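These data come from cells grown in 96-well plates and exposed to compound for 48 hours at five concentrations. At the GI50, growth is halved.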 The source made the active and inactive calls. No stated cut-off is given here; in the data, active = GI50 up to about 1.1 µM and inactive = higher. Bounds are passed on as bounds.

Test systems include HOP-18; KM-20L2; XF498; SNB-78; DLD-1; DMS-273; M19-MEL; DMS-114; RXF 631.
Assay in all cases: growth of human tumour cells (NCI), 48 h

In the case of `N#C/C(=C\c1ccc(O)c(O)c1)C(=O)NC1CCC(CC2CCC(NC(=O)/C(C#N)=C/c3ccc(O)c(O)c3)CC2)CC1` (stereo not drawn), the GI50 with HOP-18 was 2.38 µM (inactive); in the assay with KM-20L2, 1.78 µM (inactive); in the assay on XF498, 2.07 µM (inactive); in the assay with SNB-78 it was 1.59 µM (inactive); in the assay on DLD-1, 0.415 µM (active); in the assay on DMS-273, 0.222 µM (active). Moreover, in the assay on M19-MEL, the GI50 is 0.443 µM (active).

Turning to `O=C(CCc1cc(-c2ccccc2)nc(S)n1)N(Cc1ccccc1)Cc1ccccc1`, the GI50 in the assay on HOP-18, with KM-20L2, in the assay on XF498, in the assay with SNB-78, in the assay with DMS-114 and with DLD-1 was > 100 µM (inactive) each time. In addition, the GI50 in the assay on DMS-273 and in the assay with M19-MEL was > 100 µM (inactive) each time.

In the case of `COC(=O)/C(=N/Nc1cccc(Cl)c1)C(C(=O)C(=O)Nc1cccc(Cl)c1C)c1nc2ccccc2nc1C` (stereo not drawn), the GI50 is 32 µM (inactive) in the assay on KM-20L2, 45 µM (inactive) in the assay on DMS-114, 34.5 µM (inactive) with DLD-1 and 54 µM (inactive) in the assay with M19-MEL.

`COC[n+]1cc2cc(OC)c(OC)cc2c2ccc3cc(OC)c(OC)cc3c21`: the GI50 in the assay on HOP-18, in the assay with KM-20L2, with SNB-78, with DMS-114, with RXF 631 and in the assay on DLD-1 was > 100 µM (inactive) each time. The GI50 with M19-MEL is > 100 µM (inactive).

Turning to `NCCn1ccc(NC(c2ccccc2)(c2ccccc2)c2ccccc2)nc1=O`, the GI50 in the assay with HOP-18 is > 100 µM (inactive); in the assay with KM-20L2 it was 15.7 µM (inactive); with XF498, 13.4 µM (inactive); with SNB-78, 20.6 µM (inactive); with DMS-114, 18.6 µM (inactive); in the assay on DLD-1 it was 63.1 µM (inactive). In the assay on M19-MEL, the GI50 was 20.9 µM (inactive).

`CCOC(=O)c1cccnc1C(OC(C)=O)OC(C)=O`: the GI50 in the assay with HOP-18, in the assay with KM-20L2, in the assay on XF498, in the assay with SNB-78, in the assay with DMS-114 and in the assay with DLD-1 was > 100 µM (inactive) each time. The GI50 in the assay with DMS-273 and in the assay on M19-MEL was > 100 µM (inactive) throughout.

For `CCCOP1(=O)C=C(O)C(Cl)=C(C)C1` (stereo not drawn), the GI50 in the assay on KM-20L2, in the assay on XF498, with SNB-78, in the assay on DLD-1, with DMS-273 and in the assay with M19-MEL was > 100 µM (inactive) in each case.

Regarding `C=CC(=O)C#CC#CC/C=C\CCCCCCC`, the GI50 is > 20.6 µM (inactive) with KM-20L2; 10.3 µM (inactive) with SNB-78; 10.3 µM (inactive) in the assay on DMS-114; 8.79 µM (inactive) in the assay with DLD-1; > 20.6 µM (inactive) in the assay on DMS-273; > 20.6 µM (inactive) in the assay on M19-MEL.

For `CCOC(=O)CC1COc2ccc3c(c21)OCO3` (stereo not drawn), the GI50 in the assay with HOP-18, in the assay on KM-20L2, in the assay on XF498, in the assay with SNB-78, in the assay on DMS-114 and in the assay with DLD-1 was > 100 µM (inactive) each time. For the same molecule, the GI50 in the assay on DMS-273 and in the assay on M19-MEL was > 100 µM (inactive) throughout.

Regarding `COc1ccc(/C=N/NC(=O)CSc2nc(-c3ccccc3)c(-c3ccccc3)[nH]2)cc1OC`, the GI50 with KM-20L2 is 19.1 µM (inactive); with DMS-114, 46.1 µM (inactive); with DLD-1, 42.6 µM (inactive); in the assay on DMS-273 it was 20.4 µM (inactive); in the assay on M19-MEL, 18.4 µM (inactive).

For `O=C1CCC(=O)C(C(=O)CCC(=O)Nc2cccc(Cl)c2)C1` (stereo not drawn), the GI50 in the assay with HOP-18 is > 100 µM (inactive); in the assay with KM-20L2, 71 µM (inactive); in the assay on XF498, > 100 µM (inactive); in the assay on DLD-1, > 100 µM (inactive); in the assay with M19-MEL, > 100 µM (inactive).

On to `COC(=O)C(CC(=O)Nc1ccc(Cl)c(Cl)c1)C(=O)C(=O)NC1C2CC3CC(C2)CC1C3` (stereo not drawn), for which the GI50 in the assay on HOP-18 was 78.3 µM (inactive); in the assay with KM-20L2 it was > 100 µM (inactive); with SNB-78, > 100 µM (inactive); in the assay with DMS-114, > 100 µM (inactive); in the assay on DMS-273, > 100 µM (inactive); with M19-MEL it was > 100 µM (inactive).

For the molecule `Cc1c(/C=N/N=C/c2[nH]c(C(=O)OC(C)(C)C)c(C)c2C)[nH]c(C(=O)OC(C)(C)C)c1C`, the GI50 in the assay with HOP-18, in the assay with KM-20L2, in the assay with SNB-78, in the assay on DMS-114, with DLD-1 and with DMS-273 was > 100 µM (inactive) throughout. The GI50 in the assay on M19-MEL is > 100 µM (inactive).

Take `Cc1cc(NS(=O)(=O)c2ccc(Nc3c4ccccc4nc4c(C(=O)N5CCN(CCOS(C)(=O)=O)CC5)cccc34)cc2)no1`: the GI50 in the assay on KM-20L2, with XF498, with SNB-78, in the assay with DMS-114, in the assay on DLD-1 and in the assay on DMS-273 was > 100 µM (inactive) each time. Further, in the assay with M19-MEL, the GI50 was > 100 µM (inactive).

On to `O=[PH](O)c1ccccn1`, for which the GI50 in the assay with KM-20L2, with XF498, in the assay with SNB-78, with DMS-114, in the assay on DLD-1 and in the assay with DMS-273 was > 100 µM (inactive) each time. Further, in the assay on M19-MEL, the GI50 is > 100 µM (inactive).

For the molecule `COC(=O)/C(=C/c1ccc(OC)cc1)C(C(=O)O)=C(C)C`, the GI50 in the assay on HOP-18, with KM-20L2, with SNB-78, in the assay on DMS-114, with DLD-1 and in the assay on DMS-273 was > 100 µM (inactive) throughout. The GI50 in the assay on M19-MEL is > 100 µM (inactive).

Take `CCOC(=O)c1oc2c(OC)ccc3c2c1CCC3`: the GI50 with KM-20L2, in the assay on XF498, with SNB-78, with DMS-114, in the assay with RXF 631 and in the assay with DLD-1 was > 100 µM (inactive) in each case. The GI50 in the assay with DMS-273 and in the assay on M19-MEL was > 100 µM (inactive) throughout.

As for `CN(C)CCNc1ccc2nnn3c4ccccc4c(=O)c1c23`, the GI50 in the assay on KM-20L2 is 2.68 µM (inactive); in the assay with XF498 it was 6.38 µM (inactive); in the assay with SNB-78, 6.34 µM (inactive); in the assay on DMS-114 it was 4.07 µM (inactive); in the assay on RXF 631, 1.81 µM (inactive); with DLD-1, 3.61 µM (inactive). Besides, the GI50 in the assay on DMS-273 is 3.2 µM (inactive); in the assay with M19-MEL it was 2.86 µM (inactive).

For `NC(C(=O)O)c1ccc(C(=O)O)cc1` (stereo not drawn), the GI50 in the assay with KM-20L2, in the assay on XF498, in the assay on SNB-78, in the assay with DMS-114, in the assay with RXF 631 and in the assay on DLD-1 was > 100 µM (inactive) in each case. In the assay on M19-MEL, the GI50 was > 100 µM (inactive).
